For ten molecules, GI50 and TGI results are on record in PubChem BioAssay (NCI).

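Interpolation was linear, between the two tested concentrations surrounding the appropriate level; five concentrations were tested over 48 hours in 96-well plates. At the GI50, growth is halved. Definition used: TGI = concentration required for complete inhibition of growth.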

Test systems include SNB-19 CNS; MOLT-4 leukemia; MCF7 breast; CAKI-1 renal; LOX IMVI melanoma; TK-10 renal; HS 578T breast; SN12C renal; COLO 205 colon; NCI/ADR-RES ovarian.
Assay in all cases: NCI anticancer screen, dose series, 48 h

For `CCOC(=O)c1c(-c2ccccc2)[n+](=O)c2cc(Cl)c(Cl)cc2n1[O-]`, the GI50 with SNB-19 CNS was 17.7 µM; in the assay with MOLT-4 leukemia, more than 100 µM; in the assay on MCF7 breast, 2.03 µM; in the assay with CAKI-1 renal it was 1.64 µM; with LOX IMVI melanoma, 1.56 µM; in the assay on TK-10 renal, 1.57 µM. Further, the GI50 in the assay on HS 578T breast is 20.1 µM; in the assay with SN12C renal, 3.03 µM; in the assay with COLO 205 colon it was 3.85 µM; in the assay with NCI/ADR-RES ovarian, 18 µM. For the same molecule, the TGI is 35.1 µM in the assay with SNB-19 CNS; more than 100 µM in the assay on MOLT-4 leukemia; 20.9 µM with MCF7 breast; 3.2 µM with CAKI-1 renal; 2.91 µM in the assay on LOX IMVI melanoma; 4.07 µM with TK-10 renal. The TGI in the assay on HS 578T breast is 49.9 µM; in the assay with SN12C renal it was 22.2 µM; with COLO 205 colon it was 23.6 µM; in the assay on NCI/ADR-RES ovarian it was 44.7 µM.
Turning to `N#CCn1c(=O)c(Oc2ccc(F)cc2F)cc2cnc(NC3CCOCC3)nc21`, the GI50 in the assay on SNB-19 CNS, in the assay on MOLT-4 leukemia, in the assay on MCF7 breast, in the assay on CAKI-1 renal, in the assay on LOX IMVI melanoma and in the assay on TK-10 renal was more than 25 µM each time. In addition, the GI50 in the assay with HS 578T breast, with SN12C renal, in the assay with COLO 205 colon and in the assay on NCI/ADR-RES ovarian was more than 25 µM throughout. The TGI in the assay with SNB-19 CNS, in the assay with MOLT-4 leukemia, in the assay on MCF7 breast, in the assay with CAKI-1 renal, in the assay with LOX IMVI melanoma and with TK-10 renal was more than 25 µM in each case. For the same molecule, the TGI in the assay with HS 578T breast, in the assay on SN12C renal, with COLO 205 colon and with NCI/ADR-RES ovarian was more than 25 µM in each case.
As for `COc1cc(CNCCCCCCN2C(=O)c3cccc4cccc(c34)C2=O)ccc1O`, the GI50 with SNB-19 CNS is 13.6 µM; in the assay on MOLT-4 leukemia, 3.45 µM; in the assay with MCF7 breast, 1.74 µM; with CAKI-1 renal, 8.44 µM; in the assay with LOX IMVI melanoma, 1.86 µM; with TK-10 renal, 10.1 µM. Further, the GI50 in the assay on HS 578T breast is 10 µM; in the assay on SN12C renal, 10.1 µM; in the assay on COLO 205 colon, 2.54 µM; in the assay on NCI/ADR-RES ovarian, 10.4 µM. In addition, the TGI amounted to 28.5 µM with SNB-19 CNS; 16.2 µM with MOLT-4 leukemia; 3.45 µM in the assay with MCF7 breast; 26.9 µM in the assay on CAKI-1 renal; 3.68 µM in the assay with LOX IMVI melanoma; 24.8 µM in the assay with TK-10 renal. For the same molecule, the TGI in the assay with HS 578T breast was found to be 37.4 µM; in the assay with SN12C renal it was 22 µM; in the assay on COLO 205 colon it was 6.62 µM; with NCI/ADR-RES ovarian it was 32.9 µM.
As for `CSC1=NC(=Nc2c(C)cccc2C)C2(CCC(C(C)(C)C)CC2)N1c1ccc(Cl)cc1` (stereo not given), the GI50 was more than 100 µM in the assay with SNB-19 CNS; 6.82 µM with MOLT-4 leukemia; 26.5 µM in the assay on MCF7 breast; 6.59 µM in the assay on CAKI-1 renal; 6.66 µM with LOX IMVI melanoma; 39.8 µM in the assay with TK-10 renal. Besides, the GI50 in the assay with HS 578T breast was 95.8 µM; in the assay with SN12C renal, 40.8 µM; with COLO 205 colon, 46.4 µM; with NCI/ADR-RES ovarian, 77.7 µM. For the same molecule, the TGI with SNB-19 CNS, in the assay with MOLT-4 leukemia, in the assay with MCF7 breast, in the assay on CAKI-1 renal, in the assay with LOX IMVI melanoma and in the assay on TK-10 renal was more than 100 µM each time. Also, the TGI in the assay with HS 578T breast, in the assay with SN12C renal, with COLO 205 colon and in the assay with NCI/ADR-RES ovarian was more than 100 µM throughout.
In the case of `O=C1NC(=NCc2ccccc2Cl)S/C1=C\c1ccc2ncccc2c1`, the GI50 with SNB-19 CNS is 13.2 µM; in the assay on MOLT-4 leukemia it was more than 25 µM; in the assay with MCF7 breast, 9.2 µM; with CAKI-1 renal, 4.83 µM; in the assay with LOX IMVI melanoma, 8.86 µM; with TK-10 renal it was 6.02 µM. Also, the GI50 in the assay on HS 578T breast was more than 9.99 µM; in the assay on SN12C renal, 13.1 µM; in the assay with COLO 205 colon it was 8.04 µM; with NCI/ADR-RES ovarian, more than 25 µM. Also, the TGI is more than 25 µM in the assay on SNB-19 CNS; more than 25 µM in the assay with MOLT-4 leukemia; more than 25 µM in the assay with MCF7 breast; more than 19.5 µM in the assay on CAKI-1 renal; more than 25 µM in the assay on LOX IMVI melanoma; more than 25 µM with TK-10 renal. Besides, the TGI is more than 19.4 µM in the assay with HS 578T breast, more than 25 µM with SN12C renal, more than 25 µM in the assay on COLO 205 colon and more than 25 µM with NCI/ADR-RES ovarian.
On to `COc1ccc(-c2cc(-c3ccc(Nc4nc(Nc5ccccc5)nc(Nc5ccc(Cl)cc5)n4)cc3)nc(N)n2)cc1`, for which the GI50 in the assay on SNB-19 CNS was 9.03 µM; in the assay with MOLT-4 leukemia, 0.623 µM; in the assay on MCF7 breast, 5.34 µM; in the assay on CAKI-1 renal, 5.4 µM; in the assay with LOX IMVI melanoma, 11.1 µM; in the assay with TK-10 renal, 14.2 µM. Besides, the GI50 in the assay on HS 578T breast was 6.65 µM; with SN12C renal, 11.8 µM; with COLO 205 colon it was 2.29 µM; in the assay on NCI/ADR-RES ovarian, 37.4 µM. Also, the TGI was 24.6 µM in the assay on SNB-19 CNS; 12 µM in the assay on MOLT-4 leukemia; 21 µM with MCF7 breast; 23.3 µM in the assay with CAKI-1 renal; 39 µM in the assay with LOX IMVI melanoma; more than 50 µM in the assay with TK-10 renal. In addition, the TGI in the assay on HS 578T breast was 32.2 µM; in the assay on SN12C renal, 32.6 µM; in the assay with COLO 205 colon it was 16.7 µM; in the assay with NCI/ADR-RES ovarian, more than 50 µM.
Consider `CC(=O)Nc1ccc(C(=O)CCl)cc1`, for which the GI50 was 17.2 µM with SNB-19 CNS; 2.92 µM with MOLT-4 leukemia; 1.66 µM with MCF7 breast; 1.78 µM in the assay with CAKI-1 renal; 1.93 µM with LOX IMVI melanoma; 2.82 µM in the assay on TK-10 renal. The GI50 was 17.7 µM in the assay with HS 578T breast, 5.35 µM in the assay with SN12C renal, 1.97 µM in the assay on COLO 205 colon and 14.7 µM in the assay with NCI/ADR-RES ovarian. The TGI with SNB-19 CNS came to 45.1 µM; in the assay on MOLT-4 leukemia it was 7.06 µM; in the assay on MCF7 breast, 6.54 µM; in the assay on CAKI-1 renal it was 3.24 µM; in the assay on LOX IMVI melanoma it was 4.17 µM; in the assay with TK-10 renal it was 7.71 µM. Besides, the TGI stood at 80.5 µM in the assay with HS 578T breast, 19.2 µM in the assay on SN12C renal, 3.93 µM in the assay on COLO 205 colon and 43.5 µM in the assay with NCI/ADR-RES ovarian.
Regarding `COc1cc2oc(-c3cccc(C(=O)Nc4ccc(Cl)cc4)c3)cc(=O)c2c(OC)c1OC`, the GI50 was 6.35 µM in the assay on SNB-19 CNS; 2.22 µM in the assay with MOLT-4 leukemia; 2.94 µM with MCF7 breast; 1.79 µM in the assay on CAKI-1 renal; 0.413 µM in the assay on LOX IMVI melanoma; 3.22 µM in the assay on TK-10 renal. Also, the GI50 in the assay on HS 578T breast was 2.95 µM; in the assay with SN12C renal, 3.49 µM; in the assay with COLO 205 colon, 1.47 µM; in the assay with NCI/ADR-RES ovarian, 1.81 µM. For the same molecule, the TGI with SNB-19 CNS was more than 100 µM; in the assay on MOLT-4 leukemia, more than 100 µM; in the assay with MCF7 breast it was more than 100 µM; in the assay on CAKI-1 renal it was 7.84 µM; with LOX IMVI melanoma it was more than 100 µM; in the assay on TK-10 renal, more than 100 µM. Moreover, the TGI was more than 100 µM in the assay on HS 578T breast, more than 100 µM in the assay with SN12C renal, 4.04 µM with COLO 205 colon and more than 100 µM with NCI/ADR-RES ovarian.
`CC(C)(C)c1cc(C(=O)Nc2ccccc2C(=O)NCCN)cc(C(C)(C)C)c1`: the GI50 with SNB-19 CNS was 1.93 µM; with MOLT-4 leukemia, 2.2 µM; in the assay on MCF7 breast it was 1.76 µM; in the assay on CAKI-1 renal it was 2.21 µM; with LOX IMVI melanoma, 1.53 µM; in the assay on TK-10 renal, 1.68 µM. For the same molecule, the GI50 in the assay with HS 578T breast was 2.07 µM; in the assay on SN12C renal it was 1.97 µM; in the assay with COLO 205 colon it was 1.81 µM; with NCI/ADR-RES ovarian, 1.93 µM. Also, the TGI with SNB-19 CNS amounted to 3.75 µM; in the assay with MOLT-4 leukemia, 4.86 µM; in the assay on MCF7 breast it was 3.54 µM; in the assay on CAKI-1 renal, 5.56 µM; with LOX IMVI melanoma, 2.98 µM; with TK-10 renal, 3.12 µM. Also, the TGI came to 4.63 µM in the assay with HS 578T breast, 3.97 µM in the assay with SN12C renal, 3.41 µM in the assay on COLO 205 colon and 3.89 µM with NCI/ADR-RES ovarian.
As for `COc1cc2c(c(OC)c1OC)-c1ccc(NN(C(=O)c3ccccc3)C(=O)c3ccccc3)c(=O)cc1[C@@H](NC(C)=O)CC2` (tested in a mixture with another compound), the GI50 in the assay with SNB-19 CNS is 6.7 µM; with MOLT-4 leukemia, 4.08 µM; in the assay on MCF7 breast, 3.84 µM; in the assay with CAKI-1 renal it was 4.62 µM; in the assay on LOX IMVI melanoma, 4.24 µM; in the assay with TK-10 renal it was 4.04 µM. In addition, the GI50 was 1.9 µM in the assay with HS 578T breast, 5.38 µM in the assay on SN12C renal, 3.02 µM in the assay with COLO 205 colon and 4.37 µM with NCI/ADR-RES ovarian. Besides, the TGI is more than 100 µM in the assay on SNB-19 CNS; more than 100 µM in the assay on MOLT-4 leukemia; more than 100 µM in the assay on MCF7 breast; 47.1 µM in the assay on CAKI-1 renal; 16.5 µM in the assay with LOX IMVI melanoma; 42.5 µM with TK-10 renal. Besides, the TGI was 6.3 µM with HS 578T breast, more than 100 µM in the assay on SN12C renal, 12.2 µM in the assay with COLO 205 colon and more than 100 µM in the assay on NCI/ADR-RES ovarian.
